# Measurements taken from publication PMC10458458, “Characterization of Anticancer Effects of the Analogs of DJ4, a Novel Selective Inhibitor of ROCK and MRCK Kinases” (Pharmaceuticals, 2023).
# Tests used:
# A549 lung cancer cells = test: Colony forming assay; format: cell-based, human; conditions: then 14 days treatment-free, relative to control
# Protocol: Figure 2 DJ4 reduces cell survival and inhibits colony forming ability of the cancer cells. (A) Different NSCLC cells were plated in a 96-well plate to confluence and then treated for 72 h. Cytotoxicity was assessed by MTT assay. The error bars indicate SEM of triplicates. (B) To assess cytotoxicity of DJ4 in breast cancer cells, MDA-MB-231 cells were treated for 24 h with indicated concentrations of DJ4. Percentage of live cells were counted using Muse^TM Live/Dead reagent and analyzed by Muse^TM cell analyzer. Error bars indicate SEM. n = 2. * p < 0.05. (C) DJ4 inhibits colony forming ability of A549 cells treated for 48 h. After a 48-h treatment, cells were seeded with number of cells mentioned in the table and were allowed to grow and form colonies. At the end of 14 days, colonies were stained and counted. Percent surviving fraction was calculated. The figure is the representative of the replicates. (D) The data are summarized in the table and represent the average of three replicates. TEXT PRINTED IN THE PICTURE: (D) DJ4: Surviving Fraction after 14 days (%): 2.3 (Concentration: 2.5μM; Number of cells plated: 2000; SEM: 0.1); Surviving Fraction after 14 days (%): 0.4 (Concentration: 5μM; Number of cells plated: 4000; SEM: 0.0); Surviving Fraction after 14 days (%): 0.1 (Concentration: 10μM; Number of cells plated: 8000; SEM: 0.0)
# To further determine the effects of DJ4 on cell proliferation, we performed colony forming assays in A549 lung cancer cells. Forty-eight hours after the treatment with 2.5, 5.0, and 10 µM DJ4, individual cells were re-plated at low seeding density and colony formation was monitored for 14 days. The percent surviving fraction of cells relative to control cells that formed the distinct colonies were 2.3%, 0.4%, and 0.1% at 2.5, 5.0, and 10 µM, respectively, after 14 days of growth in a treatment-free culture medium (Figure 2C,D).
# [1] = system: HL60VCR acute myeloid leukemia cells; test: Cell number and cell cycle in multidrug resistant cells; format: cell-based, human; conditions: 2.5 µM and 5 µM
# Protocol: The following cell lines used in this study were obtained from ATCC: NSCLC (A549, CCL-185; H522, CRL-5810; H23, CRL-5800; H2126, CCL-256; H460, HTB-177), melanoma (A375M, CRL-1619), and breast cancer (MDA-MB-231, HTB-26). Cells were maintained in DMEM or RPMI media (Cellgro, Corning, NY, USA) supplemented with 10% fetal bovine serum (Gibco, Fisher Scientific, Hampton, NH, USA) and penicillin/streptomycin (Gibco, Fisher Scientific, Hampton, NH, USA) at 37 °C with 5% CO2 humidified incubator. Acute myeloid leukemia cells (AML, HL60; CCL240) were obtained from ATCC while vincristine resistant HL60 (HL60VCR) cells were a gift from Dr. Hong-Gang Wang (Penn State College of Medicine, Hershey, PA, USA) and both the cells were cultured in IMDM medium (HyClone, Washington, D.C., USA) with 10% FBS.
# Figure S3. DJ4 was ineffective in multidrug resistant HL60VCR acute myeloid leukemia cells.
# A. Endogenous expression of p-glycoprotein (P-gp) in HL60 and HL60VCR (multidrug resistant cells). β-Actin was used as internal control.
# B. P-gp inhibitor cyclosporine A (CsA) treatment (2.5 µM) sensitized resistant cancer cells to DJ4. […] Number of cells were counted using MuseTM cell analyzer.
# Statistical significance was analyzed by one-way ANOVA and Dunnett’s multiple comparison post-test. […]
# C. […] The cells were treated at 2.5 µM and 5 µM concentrations and analyzed using flow cytometry. […]
# ROCK2 = ROCK2 (Homo sapiens, UniProt O75116); test: KINOMEscan competition binding assay; set-up: purchased DiscoverX Corporation (Lead Hunter Discovery Services, KINOMEscan); conditions: ROCK2, 10 µM
# Chain of ROCK2 (O75116 whole entry): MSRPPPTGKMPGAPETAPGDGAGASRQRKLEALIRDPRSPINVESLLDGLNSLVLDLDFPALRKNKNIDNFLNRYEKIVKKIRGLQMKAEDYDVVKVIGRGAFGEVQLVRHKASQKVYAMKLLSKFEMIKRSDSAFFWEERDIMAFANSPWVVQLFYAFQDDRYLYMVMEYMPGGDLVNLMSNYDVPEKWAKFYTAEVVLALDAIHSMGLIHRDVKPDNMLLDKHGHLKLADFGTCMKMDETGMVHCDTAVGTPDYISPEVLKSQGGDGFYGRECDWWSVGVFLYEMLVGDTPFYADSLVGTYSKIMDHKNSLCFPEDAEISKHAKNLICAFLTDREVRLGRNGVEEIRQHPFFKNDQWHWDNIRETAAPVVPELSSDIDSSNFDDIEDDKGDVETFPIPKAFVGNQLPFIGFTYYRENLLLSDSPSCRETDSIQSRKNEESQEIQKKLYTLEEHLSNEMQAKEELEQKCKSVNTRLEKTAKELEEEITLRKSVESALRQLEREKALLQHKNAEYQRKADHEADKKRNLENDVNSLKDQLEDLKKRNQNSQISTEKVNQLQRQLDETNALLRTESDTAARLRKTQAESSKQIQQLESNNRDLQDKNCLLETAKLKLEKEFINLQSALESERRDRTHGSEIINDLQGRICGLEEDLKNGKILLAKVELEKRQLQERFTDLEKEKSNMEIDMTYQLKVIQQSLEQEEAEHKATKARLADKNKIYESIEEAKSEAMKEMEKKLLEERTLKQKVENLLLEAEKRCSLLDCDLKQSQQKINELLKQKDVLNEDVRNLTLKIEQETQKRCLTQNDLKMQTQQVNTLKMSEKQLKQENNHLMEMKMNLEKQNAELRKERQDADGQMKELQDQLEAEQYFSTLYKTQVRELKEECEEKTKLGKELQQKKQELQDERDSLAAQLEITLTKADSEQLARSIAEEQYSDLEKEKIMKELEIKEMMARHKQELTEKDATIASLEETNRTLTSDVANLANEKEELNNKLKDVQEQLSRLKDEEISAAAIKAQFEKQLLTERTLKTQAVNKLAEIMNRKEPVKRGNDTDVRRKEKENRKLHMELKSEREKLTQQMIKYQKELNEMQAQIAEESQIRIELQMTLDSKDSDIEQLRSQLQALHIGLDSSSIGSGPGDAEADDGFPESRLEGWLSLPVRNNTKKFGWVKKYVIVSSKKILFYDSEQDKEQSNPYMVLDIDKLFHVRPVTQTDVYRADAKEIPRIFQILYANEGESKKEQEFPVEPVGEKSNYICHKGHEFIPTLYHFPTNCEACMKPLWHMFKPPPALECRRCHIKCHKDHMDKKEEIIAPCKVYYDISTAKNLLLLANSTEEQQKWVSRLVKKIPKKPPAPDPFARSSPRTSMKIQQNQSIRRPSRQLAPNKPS
# Source text: (§1) To examine specificity of DJ4 to different human kinases, we performed a KINOMEscan profiling assay (DiscoverX, Fremont, CA, USA). The KINOMEscan assay consists of a panel of more than 480 kinases of different classes (TK/TKL/STE/CK1/AGC/CAMK/CMGC/others), including clinically relevant mutants, atypical kinases, lipid, and pathogen kinases. […] However, we also recognized the limitations of DJ4 that preclude its clinical development and the need for further optimization of the DJ4 chemotype.
# (§2) The KINOMEscan®, in vitro competition binding assay, was performed by Lead Hunter Discovery Services (DiscoverX Corporation, Fremont, CA, USA) to determine the kinase specificity of DJ4, a novel kinase inhibitor [19, 44]. The KINOMEscan® panel consists of more than 480 kinases, including clinically relevant mutants, lipid, atypical, and pathogen kinases, plus a growing panel of activation-state specific assays. The primary screen was performed using a single concentration of 10 µM, and the results for DJ4 binding interactions are reported as percent of control (%Ctrl). The %Ctrl is calculated as follows: [(DJ4 signal-positive control signal)/(negative control DMSO signal-positive control signal)] x […]. The human kinome tree annotation for DJ4 is plotted with Reaction Biology’s Kinase Mapper and KinMap web interface tool http://kinhub.org/kinmap (accessed on 09 January 2023).
# ROCK1 = ROCK1 (Homo sapiens, UniProt Q13464); test: KINOMEscan competition binding assay; set-up: purchased DiscoverX Corporation (Lead Hunter Discovery Services, KINOMEscan); conditions: ROCK1, 10 µM
# Chain of ROCK1 (Q13464 whole entry): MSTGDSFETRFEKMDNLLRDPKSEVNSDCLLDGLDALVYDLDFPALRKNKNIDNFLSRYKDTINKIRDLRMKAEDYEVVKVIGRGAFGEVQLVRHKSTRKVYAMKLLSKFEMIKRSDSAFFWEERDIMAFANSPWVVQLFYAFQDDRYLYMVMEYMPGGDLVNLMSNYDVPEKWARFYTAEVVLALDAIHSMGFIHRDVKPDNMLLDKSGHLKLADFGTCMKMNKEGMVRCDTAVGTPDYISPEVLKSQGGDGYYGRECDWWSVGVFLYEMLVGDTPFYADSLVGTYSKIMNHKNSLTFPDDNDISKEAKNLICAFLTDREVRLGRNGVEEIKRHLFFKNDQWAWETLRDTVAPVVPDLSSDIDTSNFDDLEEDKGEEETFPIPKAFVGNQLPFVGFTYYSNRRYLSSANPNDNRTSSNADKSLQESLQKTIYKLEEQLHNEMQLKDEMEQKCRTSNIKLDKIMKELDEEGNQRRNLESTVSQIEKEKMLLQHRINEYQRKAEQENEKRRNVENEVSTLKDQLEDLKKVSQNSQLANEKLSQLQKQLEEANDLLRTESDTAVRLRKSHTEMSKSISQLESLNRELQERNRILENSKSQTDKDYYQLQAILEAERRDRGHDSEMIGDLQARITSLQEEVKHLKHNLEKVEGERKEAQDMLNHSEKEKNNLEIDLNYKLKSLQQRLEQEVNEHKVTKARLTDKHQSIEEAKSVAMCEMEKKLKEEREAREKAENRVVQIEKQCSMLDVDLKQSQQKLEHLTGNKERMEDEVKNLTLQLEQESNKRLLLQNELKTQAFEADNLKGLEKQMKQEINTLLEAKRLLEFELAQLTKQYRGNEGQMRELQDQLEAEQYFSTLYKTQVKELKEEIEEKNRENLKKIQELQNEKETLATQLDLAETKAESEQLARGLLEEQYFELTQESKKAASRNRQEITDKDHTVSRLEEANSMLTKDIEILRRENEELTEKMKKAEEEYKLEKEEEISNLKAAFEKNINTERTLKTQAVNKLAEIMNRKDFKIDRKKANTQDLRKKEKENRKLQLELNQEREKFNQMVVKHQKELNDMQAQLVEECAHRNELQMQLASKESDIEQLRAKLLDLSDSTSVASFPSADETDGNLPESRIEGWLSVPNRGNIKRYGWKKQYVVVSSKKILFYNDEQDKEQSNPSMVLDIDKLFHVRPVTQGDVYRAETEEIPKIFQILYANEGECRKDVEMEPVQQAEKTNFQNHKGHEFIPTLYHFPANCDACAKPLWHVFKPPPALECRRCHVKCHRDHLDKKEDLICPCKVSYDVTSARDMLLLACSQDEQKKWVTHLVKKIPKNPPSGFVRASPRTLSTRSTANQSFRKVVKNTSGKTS
# Source text: as §1, §2
compound,measurement,setting,value
O=C1N/C(=N\CCc2ccccc2)S/C1=C/c1c[nH]c2ncccc12 [DJ4],Surviving Fraction after 14 days,"A549 lung cancer cells; A549, 2.5 µM for 48 h",2.3%
same,Surviving Fraction after 14 days,"A549 lung cancer cells; A549, 5.0 µM for 48 h",0.4%
same,Surviving Fraction after 14 days,"A549 lung cancer cells; A549, 10 µM for 48 h",0.1%
same,effect in multidrug resistant cells,[1],ineffective
same,inhibition at 10 µM,ROCK2,> 98%
same,inhibition at 10 µM,ROCK1,> 98%
